One test addresses T1, neuronal nicotinic acetylcholine receptors (Rattus norvegicus, UniProt P09483+P12390).
T1 construct: crude synaptic membrane preparations from whole rat brain; from tissue; host or cells: whole rat brain, crude synaptic membranes
In words: [3H]-cytisine binding to neuronal nicotinic acetylcholine receptors, crude synaptic membranes from whole rat brain. The settings on record: [3H]-CYT 1.25 nM, whole rat brain membranes, 60 minutes at 4° C.; Cheng and Prusoff correction; Table 1; read-out: Ki. On the procedure: The in vitro protocols for determination of nicotinic acetylcholine channel receptor binding potencies of ligands was determined as follows.
Binding of [^3H]-cytisine ([^3H]-CYT) to neuronal nicotinic acetylcholine receptors was accomplished using crude synaptic membrane preparations from whole rat brain (Pabreza et al., Molecular Pharmacol., 1990, 39:9). Washed membranes were stored at −80° C. prior to use. Frozen aliquots were slowly thawed and resuspended in 20 volumes of buffer (containing: 120 mM NaCl, 5 mM KCl, 2 mM MgCl2, 2 mM CaCl2 and 50 mM Tris-Cl, pH 7.4 @4° C.). After centrifuging at 20,000×g for 15 minutes, the pellets were resuspended in 30 volumes of buffer.
The test compounds were dissolved in water to make 10 mM stock solutions. Each solution was then diluted (1:100) with buffer (as above) and further taken through seven serial log dilutions to produce test solutions from 10^−5 to 10^−11 M.
Homogenate (containing 125-150 µg protein) was added to triplicate tubes containing the range of concentrations of test compound described above and [^3H]-CYT (1.25 nM) in a final volume of 500 μL. Samples were incubated for 60 minutes at 4° C., then rapidly filtered through Whatman GF/B filters presoaked in 0.5% polyethyleneimine using 3×4 mL of ice-cold buffer. The filters are counted in 4 mL of Ecolume® (ICN). Nonspecific binding was determined in the presence of 10 μM (−)-nicotine and values were expressed as a percentage of total binding. IC50 values were determined with a four-parameter non-linear regression and IC50 values were converted to K1 values using the Cheng and Prusoff correction (K1=IC50/(1+[ligand]/Kd of ligand).
Each Example number corresponds to the synthetic Examples described above. […] The lower the Ki value, the more affinity for neuronal nicotinic acetylcholine receptors.
T1 sequence (P09483 31-630): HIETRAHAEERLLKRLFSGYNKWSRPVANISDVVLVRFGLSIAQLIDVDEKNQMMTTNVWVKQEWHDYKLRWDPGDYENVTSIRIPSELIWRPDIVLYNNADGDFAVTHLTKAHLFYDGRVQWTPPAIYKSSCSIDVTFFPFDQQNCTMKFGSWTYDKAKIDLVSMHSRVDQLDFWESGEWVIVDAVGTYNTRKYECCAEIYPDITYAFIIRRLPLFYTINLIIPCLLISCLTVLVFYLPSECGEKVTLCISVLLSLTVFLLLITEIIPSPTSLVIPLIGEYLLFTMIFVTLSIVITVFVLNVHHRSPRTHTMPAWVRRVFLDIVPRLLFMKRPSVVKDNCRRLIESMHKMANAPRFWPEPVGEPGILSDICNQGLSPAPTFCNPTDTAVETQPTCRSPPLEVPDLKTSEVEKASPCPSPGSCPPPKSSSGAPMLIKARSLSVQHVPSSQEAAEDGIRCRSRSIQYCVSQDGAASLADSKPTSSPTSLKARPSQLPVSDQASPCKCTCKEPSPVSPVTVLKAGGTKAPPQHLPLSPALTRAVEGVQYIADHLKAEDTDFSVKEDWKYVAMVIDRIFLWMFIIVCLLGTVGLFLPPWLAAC
T1 sequence (P12390 25-500): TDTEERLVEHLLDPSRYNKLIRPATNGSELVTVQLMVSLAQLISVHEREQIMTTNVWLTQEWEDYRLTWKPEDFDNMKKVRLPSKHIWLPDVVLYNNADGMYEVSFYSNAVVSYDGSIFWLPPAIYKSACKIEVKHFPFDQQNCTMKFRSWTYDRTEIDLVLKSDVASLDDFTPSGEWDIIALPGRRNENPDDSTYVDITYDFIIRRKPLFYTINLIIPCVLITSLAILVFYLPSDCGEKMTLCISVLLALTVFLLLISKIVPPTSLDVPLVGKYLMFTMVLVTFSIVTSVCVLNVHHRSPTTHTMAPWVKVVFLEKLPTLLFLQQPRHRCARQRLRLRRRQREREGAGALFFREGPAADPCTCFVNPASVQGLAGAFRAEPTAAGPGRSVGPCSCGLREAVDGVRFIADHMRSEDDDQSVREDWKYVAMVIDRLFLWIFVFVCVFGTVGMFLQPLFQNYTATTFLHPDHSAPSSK
Consider `CCCN[C@H](C)COc1ccc(Cl)nc1` [Example 42, 5-[(R)-2-(1-propyl)amino-1-propyloxy]-2-chloro pyridine p-toluenesulfonic acid], for which the Ki came out at 7530 nM.

As for `CC[C@H](N)COc1ccc(F)nc1` [Example 16, 5-[(S)-2-amino-1-butyloxy]-2-fluoro pyridine p-toluenesulfonic acid], the Ki turned out to be 39.5 nM. Still for that read-out and setting: under `CN(C)[C@H](COc1cnc(Cl)c(Br)c1)Cc1ccccc1` [Example 22, 5-[(S)-2-dimethylamino-3-phenyl-1-propyloxy]-2-chloro-3-bromo pyridine p-toluenesulfonic acid] stands 319 nM; under `CC[C@@H](COc1ccc(F)nc1)NC` [Example 17, 5-[(S)-2-methylamino-1-butyloxy]-2-fluoro pyridine p-toluenesulfonic acid], 225 nM. Same read-out and setting: to “5-[(R)-2-methylamino-1-propyloxy]-2-chloro-3-(4-vinylpyridinyl) pyridine p-toluenesulfonic acid [Example 40]” belongs 0.0757 nM.

`C[C@H](COc1cnc(Cl)c(Br)c1)N(C)C` [Example 33, 5-[(R)-2-dimethylamino-1-propyloxy]-2-chloro-3-bromo pyridine p-toluenesulfonic acid]: the Ki is 11.9 nM.

Regarding “5-[(S)-2-amino-1-butyloxy]-2-chloro-3-(4-vinylpyridinyl) pyridine di-p-toluenesulfonic acid [Example 19]”, the Ki was 0.18 nM. Still for that read-out and setting: under “5-[(S)-2-methylamino-3-phenyl-1-propyloxy]-2-chloro-3-(4-vinylpyridinyl) pyridine di-p-toluenesulfonic acid [Example 25]” stands 2.61 nM; under `C[C@@H](N)COc1cnc(Cl)c(C=Cc2ccncc2)c1` [Example 38, 5-[(R)-2-amino-1-propyloxy]-2-chloro-3-(4-vinylpyridinyl) pyridine p-toluenesulfonic acid], 0.0809 nM.

For `N[C@H](COc1cnc(Cl)c(Br)c1)Cc1ccccc1` [Example 21, 5-[(S)-2-amino-3-phenyl-1-propyloxy]-2-chloro-3-bromo pyridine p-toluenesulfonic acid], the Ki amounted to 102 nM. Turning to `CCN[C@H](C)COc1ccc(Cl)nc1` [Example 41, 5-[(R)-2-ethylamino-1-propyloxy]-2-chloro pyridine p-toluenesulfonic acid], the Ki came to 2310 nM.

Staying with this test, now noted: [3H]-CYT 1.25 nM, whole rat brain membranes, 60 minutes at 4° C.; Cheng and Prusoff correction; Table 2; read-out: K1 (nm).
`CC(CCOc1cnc(Cl)c(Br)c1)N(C)C` (stereo not drawn) [Example 46, 5-(3-Dimethylamino-1-butyloxy)-2-chloro-3-bromopyridine p-toluenesulfonic acid]: the Ki is 3.1 nM.

For `Cc1cc(OCCC(C)N)cnc1Cl` (stereo not drawn) [Example 49, 5-(3-Amino-1-butyloxy)-2-chloro-3-methyl-pyridine p-toluenesulfonic acid], the Ki was found to be 25 nM. On the same count and under the same terms, to `CC(CCOc1ccc(Cl)nc1)N(C)C` (stereo not drawn) [Example 45, 5-(3-Dimethylamino-1-butyloxy]-2-chloro pyridine p-toluenesulfonic acid] belongs 18 nM; to `CC(N)CCOc1cnc(Cl)c(Br)c1` (stereo not drawn) [Example 47, 5-(3-Amino-1-butyloxy)-2-chloro-3-bromo-pyridine p-toluenesulfonic acid], 31 nM; to `CC(N)CCOc1ccc(F)nc1` (stereo not drawn) [Example 43, 5-(3-Amino-1-butyloxy)-2-fluoro pyridine p-toluenesulfonic acid], 122 nM.

On to `Cc1cc(OCCC(C)N(C)C)cnc1Cl` (stereo not drawn) [Example 48, 5-(3-dimethylamino-1-butyloxy]-2-chloro-methylpyridine p-toluenesulfonic acid], for which the Ki amounted to 1.3 nM. Regarding `CC(N)CCOc1ccc(Cl)nc1` (stereo not drawn) [Example 44, 5-(3-Amino-1-butyloxy)-2-chloropyridine p-toluenesulfonate], the Ki came out at 20 nM.

Values taken from patent publication US20010034357A1, “Substituted pyridine compounds useful for controlling chemical synaptic transmission” (priority 2000, published 2001).
